This passage reports IC50 and EC50 results from patent publication US8546608B2, “Proteasome inhibitors and methods of using the same” (Cephalon, Inc., priority 2003, dated 2013).

The target of experiment [1] is T1, 20S Human Erythrocyte Proteasome (HEP) (Homo sapiens, UniProt P20618+P28074).
T1 construct: 20S Human Erythrocyte Proteasome (HEP), purchased from Immatics Biotechnologies Inc; purchased Immatics Biotechnologies Inc., Tübingen, Germany; host or cells: human erythrocytes (natural source)
The experiment can be described thus: Chymotrypsin-like activity of 20S Human Erythrocyte Proteasome (HEP), IC50 determination. The note with it: assay of Example C, inhibition of HEP. The experiment is classed as biochemical. In a few lines: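 20S proteasome at 0.2 μg/mL (about 0.6 nM catalytic sites) in 20 mM Tris with 0.04% SDS, preincubated 15 min at 37° C with inhibitor before Suc-LLVY-AMC (100 μM final). AMC fluorescence read in the linear range; triplicates, IC50 from concentration series.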

The target in experiment [2] is T2, proteasome in Molt-4 cells (human leukemia) (Homo sapiens, UniProt P20618+P28074).
T2 sequence (P28074 60-263): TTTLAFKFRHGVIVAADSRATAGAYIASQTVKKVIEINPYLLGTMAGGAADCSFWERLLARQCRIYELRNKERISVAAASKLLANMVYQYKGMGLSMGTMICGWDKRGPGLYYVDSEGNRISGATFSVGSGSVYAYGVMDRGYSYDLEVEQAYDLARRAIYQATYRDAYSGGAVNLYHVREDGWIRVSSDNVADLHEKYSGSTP
T2 sequence (P20618 29-241): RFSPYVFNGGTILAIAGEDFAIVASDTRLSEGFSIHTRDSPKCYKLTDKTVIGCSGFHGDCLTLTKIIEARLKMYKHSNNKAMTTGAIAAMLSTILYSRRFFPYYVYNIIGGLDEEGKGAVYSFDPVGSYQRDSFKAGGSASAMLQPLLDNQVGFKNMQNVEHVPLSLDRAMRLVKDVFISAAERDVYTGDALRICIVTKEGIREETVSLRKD
The experiment is classed as cell-based. The note with it: assay of Example E, inhibition of MOLT4; read-out: MOLT4 (EC50). Here is the method: Cellular Assay for Chymotrypsin-like activity of Proteasome in Molt-4 Cell Line
The chymotrypsin-like activity of proteasome in Molt-4 cells (human leukemia) was assayed according to the following procedure. A brief description of the method was published previously (Harding et al., J. Immunol., 1995, 155, 1767).
Molt-4 cells were washed and resuspended in HEPES-buffered Saline (5.4 mM KCl, 120 mM NaCl, 25 mM Glucose, 1.5 mM MgSO4, 1 mM Na pyruvate, 20 mM Hepes) and plated in 96-well microtiter white plates to a final concentration of 6×10^6 cells/mL. Then various 5× proteasome inhibitor concentrations (or diluted DMSO for controls), prepared from 250×DMSO solutions by diluting 50-fold using HEPES-buffered saline, were added to the plate to a final 1× concentration. After 15 minutes incubation at 37° C., a fluorimetric cell permeable substrate (MeOSuc-FLF-AFC) (methoxysuccinyl-Phe-Leu-Phe-7-amido-4-trifluoromethylcoumarin) purchased from Enzyme Systems Products, catalogue number AFC-88, was added to each well at a final concentration of 25 μM from a stock solution of 20 mM in DMSO. Reaction volumes were 100 μl per well.
The concentration of free AFC was monitored every 1.5 min for 30 min ([…]) on a Polastar Optima, BMG Labtechnologies microplate reader, using an excitation wavelength of 390 nm and emission wavelength of 520 nm. Proteasome activity was determined under conditions in which substrate hydrolysis increased linearly with time and the change in fluorescent signal was proportional to the concentration of free AFC.
Determination of EC50 Values for Proteasome Inhibitors in MOLT-4 Cell Line
Inhibition of chymotrypsin-like activity of proteasome in Molt-4 cells was determined by incubating cells with various concentrations of putative inhibitors for 15 minutes at 37° C. prior to the addition of substrate. Each experimental condition was evaluated in triplicate, and replicate experiments were performed for the inhibitors described herein.

As a reminder, the IC50 is the concentration needed to halve the response being measured. Read a low IC50 as greater potency. One may read the EC50 as the concentration at which the effect is half-maximal. With `CC(C)C[C@H](NC(=O)[C@H](CCCNC(=N)N[N+](=O)[O-])NC(=O)CCCCCCCCCN1C(=O)c2ccccc2C1=O)B1O[C@@H]2C[C@@H]3C[C@@H](C3(C)C)[C@]2(C)O1` [D.2, 10-(1,3-Dioxo-1,3-dihydro-isoindol-2-yl)-decanamide, N-[(1S)-1-[[[(1R)-1-[(3aS,4S,6S,7aR)-hexahydro-3a,5,5-trimethyl-4,6-methano-1,3,2-benzodioxaborol-2-yl]-3-methylbutyl]amino]carbonyl]-4-[[imino(nitroamino)methyl]amino]butyl]-;], the IC50 in experiment [1] was below 0.01 µM. For the same molecule, in experiment [2], the EC50 is below 0.2 µM.
The matching figures for `COC(=O)CCCC(=O)N[C@@H](CCCNC(=N)N[N+](=O)[O-])C(=O)N[C@@H](CC(C)C)B1O[C@@H]2C[C@@H]3C[C@@H](C3(C)C)[C@]2(C)O1` [D.2.1, 4-(methoxycarbonyl)butanamide,N-[(1S)-1-[[[(1R)-1-[(3aS,4S,6S,7aR)-hexahydro-3a,5,5-trimethyl-4,6-methano-1,3,2-benzodioxaborol-2-yl]-3-methylbutyl]amino]carbonyl]-4-[[imino(nitroamino)methyl]amino]butyl]]: below 0.01 µM and 0.2 to 2 µM.
The matching figures for `CCCCN1CCC(CCCC(=O)N[C@@H](CCCNC(=N)N[N+](=O)[O-])C(=O)N[C@@H](CC(C)C)B2O[C@@H]3C[C@@H]4C[C@@H](C4(C)C)[C@]3(C)O2)CC1` [D.2.2, 4-(1-Butyl-piperidin-4-yl)-butanamide,N-[(1S)-1-[[[(1R)-1-[(3aS,4S,6S,7aR)-hexahydro-3a,5,5-trimethyl-4,6-methano-1,3,2-benzodioxaborol-2-yl]-3-methylbutyl]amino]carbonyl]-4-[[imino(nitroamino)methyl]amino]butyl]]: below 0.01 µM and above 10 µM.
As to `CCCCOCC(=O)N[C@@H](CCCNC(=N)N[N+](=O)[O-])C(=O)N[C@@H](CC(C)C)B1O[C@@H]2C[C@@H]3C[C@@H](C3(C)C)[C@]2(C)O1` [D.2.3, 2-Butoxyacetamide,N-[(1S)-1-[[[(1R)-1-[(3aS,4S,6S,7aR)-hexahydro-3a,5,5-trimethyl-4,6-methano-1,3,2-benzodioxaborol-2-yl]-3-methylbutyl]amino]carbonyl]-4-[[imino(nitroamino)methyl]amino]butyl]], the IC50 in experiment [1] is below 0.01 µM. Also, the EC50 in experiment [2] was below 0.2 µM.
The matching figures for `CC(C)C[C@H](NC(=O)[C@H](CCCNC(=N)N[N+](=O)[O-])NC(=O)CCCCCCCCCCCNC(=O)OC(C)(C)C)B1O[C@@H]2C[C@@H]3C[C@@H](C3(C)C)[C@]2(C)O1` [D.2.4, 12-[(1,1-dimethylethoxy)carbonylamino] dodecanamide,N-[(1S)-1-[[[(1R)-1-[(3aS,4S,6S,7aR)-hexahydro-3a,5,5-trimethyl-4,6-methano-1,3,2-benzodioxaborol-2-yl]-3-methylbutyl]amino]carbonyl]-4-[[imino(nitroamino)methyl]amino]butyl]-]: below 0.01 µM and below 0.2 µM.
For `COC(=O)CCCCCCC(=O)N[C@@H](CCCNC(=N)N[N+](=O)[O-])C(=O)N[C@@H](CC(C)C)B1O[C@@H]2C[C@@H]3C[C@@H](C3(C)C)[C@]2(C)O1` [D.2.5], in that order: below 0.01 µM and 0.2 to 2 µM.
For `COCCOCC(=O)NCC(=O)N[C@@H](CCCNC(=N)N[N+](=O)[O-])C(=O)N[C@@H](CC(C)C)B1O[C@@H]2C[C@@H]3C[C@@H](C3(C)C)[C@]2(C)O1` [D.2.6], in that order: below 0.1 µM and 2 to 10 µM.
Molecule `CCCCCCCCCC(=O)NCC(=O)N[C@@H](CC(C)C)B1O[C@@H]2C[C@@H]3C[C@@H](C3(C)C)[C@]2(C)O1` [D.2.7, Decanamide,N-[1-[[[(1R)-1-[(3aS,4S,6S,7aR)-hexahydro-3a,5,5-trimethyl-4,6-methano-1,3,2-benzodioxaborol-2-yl]-3-methylbutyl]amino]carbonyl]methyl]] registered an IC50 in experiment [1] below 0.01 µM. Moreover, the EC50 in experiment [2] is below 0.2 µM.
For `COCCOCCOCC(=O)NCC(=O)N[C@@H](CC(C)C)B1O[C@@H]2C[C@@H]3C[C@@H](C3(C)C)[C@]2(C)O1` [D.2.8, 2-[2-(2-methoxyethoxy)ethoxy]acetamide,N-[1-[[[(1R)-1-[(3aS,4S,6S,7aR)-hexahydro-3a,5,5-trimethyl-4,6-methano-1,3,2-benzodioxaborol-2-yl]-3-methylbutyl]amino]carbonyl]methyl]], in that order: below 0.1 µM and below 0.2 µM.
Regarding `CCCCCCCCCC(=O)N[C@@H](CCCNC(=N)N[N+](=O)[O-])C(=O)N[C@@H](CC(C)C)B1O[C@@H]2C[C@@H]3C[C@@H](C3(C)C)[C@]2(C)O1` [D.3.1, Decanamide,N-[(1S)-1-[[[(1R)-1-[(3aS,4S,6S,7aR)-hexahydro-3a,5,5-trimethyl-4,6-methano-1,3,2-benzodioxaborol-2-yl]-3-methylbutyl]amino]carbonyl]-4-[[imino(nitroamino)methyl]amino]butyl]], the IC50 in experiment [1] is below 0.01 µM. For the same molecule, the EC50 in experiment [2] was below 0.2 µM.
Regarding `CC(C)C[C@H](NC(=O)[C@H](CCCNC(=N)N[N+](=O)[O-])NC(=O)c1cccc2ccccc12)B1O[C@@H]2C[C@@H]3C[C@@H](C3(C)C)[C@]2(C)O1` [D.3.2, Naphthalen-1-carboxamide,N-[(1S)-1-[[[(1R)-1-[(3aS,4S,6S,7aR)-hexahydro-3a,5,5-trimethyl-4,6-methano-1,3,2-benzodioxaborol-2-yl]-3-methylbutyl]amino]carbonyl]-4-[[imino(nitroamino)methyl]amino]butyl]], the IC50 in experiment [1] was below 0.01 µM. Besides, the EC50 in experiment [2] is below 0.2 µM.
For `CC(C)C[C@H](NC(=O)[C@H](CCCNC(=N)N[N+](=O)[O-])NC(=O)Cc1ccccc1)B1O[C@@H]2C[C@@H]3C[C@@H](C3(C)C)[C@]2(C)O1` [D.3.3], in that order: below 0.01 µM and 0.2 to 2 µM.
The matching figures for `CCCCCCCCCCCC(=O)N[C@@H](CCCNC(=N)N[N+](=O)[O-])C(=O)N[C@@H](CC(C)C)B1O[C@@H]2C[C@@H]3C[C@@H](C3(C)C)[C@]2(C)O1` [D.3.7, Dodecanamide,N-[(1S)-1-[[[(1R)-1-[(3aS,4S,6S,7aR)-hexahydro-3a,5,5-trimethyl-4,6-methano-1,3,2-benzodioxaborol-2-yl]-3-methylbutyl]amino]carbonyl]-4-[[imino(nitroamino)methyl]amino]butyl]]: below 0.01 µM and below 0.2 µM.
The matching figures for `CCCCCCCC(=O)N[C@@H](CCCNC(=N)N[N+](=O)[O-])C(=O)N[C@@H](CC(C)C)B1O[C@@H]2C[C@@H]3C[C@@H](C3(C)C)[C@]2(C)O1` [D.3.8, Octanamide,N-[(1S)-1-[[[(1R)-1-[(3aS,4S,6S,7aR)-hexahydro-3a,5,5-trimethyl-4,6-methano-1,3,2-benzodioxaborol-2-yl]-3-methylbutyl]amino]carbonyl]-4-[[imino(nitroamino)methyl]amino]butyl]]: below 0.01 µM and below 0.2 µM.
As for `CCCCC[C@H]1CC[C@H](C(=O)N[C@@H](CCCNC(=N)N[N+](=O)[O-])C(=O)N[C@@H](CC(C)C)B2O[C@@H]3C[C@@H]4C[C@@H](C4(C)C)[C@]3(C)O2)CC1` [D.3.11, trans-4-Pentylcyclohexanecarboxamide, N-[(1S)-1-[[[(1R)-1-[(3aS,4S,6S,7aR)-hexahydro-3a,5,5-trimethyl-4,6-methano-1,3,2-benzodioxaborol-2-yl]-3-methylbutyl]amino]carbonyl]-4-[[imino(nitroamino)methyl]amino]butyl]], in experiment [1], the IC50 is below 0.01 µM. Also, in experiment [2], the EC50 is below 0.2 µM.
